Where two headings read alike, the source gives them in different places.
Tests used:
[1] = test system: tau phosphorylation in 4R0N tau overexpressing H4 neuroglioma cells; assay: Cell culture tau assay: western for total and phosphorylated tau after 96 h compound treatment; assay type: cell-based; settings: for 12E8 % Control pTau/Total / pS396 % Control pTau/Total / pT231 % Control pTau/Total: normalized to total tau
Description: 4R0N tau overexpressing H4 neuroglioma cells were maintained in Dulbecco's Modified Eagle Medium (Invitrogen) supplemented with 10% fetal bovine serum (Invitrogen), 1% penicillin-streptomycin, geneticin (0.25 mg/ml), and 2 mM L-Glutamine (Invitrogen). Cells were maintained by splitting 1∶10 at 90% confluency. Prior to any experimentation, cells were 70–75% confluent to ensure cells were in their active growth phase. To test effects of DYRK1A knockdown on tau phosphorylation, cells were transfected with DYRK1A siRNA. Prior to treating cells with DYRK1A siRNA, siRNA was first complexed with siLentfect lipid transfection reagent (Bio-Rad) and reduced serum medium (Invitrogen) using a 6 well plate format. The final effective siRNA molarity used was 22.85 nM per well. Cells were grown for 96 hours at 37°C, 5% CO2. Cell lysates were prepared using the Complete Lysis-M, EDTA-free kit (Roche Applied Science) and total protein concentration was quantified using the BCA protein assay (Pierce). Westerns for the multiple forms of tau were performed as described below.
For all cell-based experiments, including siRNA treatments and compound treatments, cells were treated for 96 hours at 37°C, with 5% CO2. Cell lysates were then prepared using the Complete Lysis-M, EDTA-free kit (Roche Applied Science) supplemented with phosphatase inhibitor cocktails 1 and 2 (Sigma). Lysates were quantified using the BCA protein assay (Pierce). Protein from lysates (30 µg total protein per lane) was separated on SDS-PAGE gels and transferred to nitrocellulose membrane. Membranes were blocked in 5% blocking solution for one hour at room temperature (RT). Blocking buffer solution used for detection of non phosphorylated protein contained 5% Non-fat dry milk in 1×-TBS-T (50 mM Tris-HCl pH 7.4, 137 mM […], 2.7 mM KCl, 0.1% Tween). For detection of phosphorylated protein, blocking buffer solution contained 5% Bovine Serum Albumin in 1× TBS-T. Membranes were probed with primary antibody (various dilutions depending on the epitope – see below) in blocking buffer overnight at 4°C on a rocker. Membranes were subsequently washed with 1× TBS-T and probed with secondary antibody in blocking buffer for forty-five minutes using a 1∶25,000 dilution of HRP-GAM or HRP-GAR (Jackson Immunoresearch), depending on the species (mouse or rabbit) in which the primary antibodies were raised. Following incubation with secondary antibody, membranes were washed in 1× TBS-T and developed with Super Signal West Femto Maximum Sensitivity Substrate Kit ([…]) and digitally imaged. Protein band signal saturation was assessed before any further analysis of multiple forms of tau. Alpha Innotech Fluoro Chem SF imaging software verifies degrees of saturation when signal intensity is beyond the dynamic range (which is from 0–65,535). Protein band signal intensities used for quantification were within the instrument's dynamic range.
To test multiple primary antibodies, membranes were stripped for 15 minutes at RT using ReBlot Plus Mild Antibody Stripping Solution (Millipore). Membranes were then washed for 5 minutes in 1× TBS-T and blocked for one hour in 5% blocking solution at RT. For verification of protein loading, membranes were reprobed overnight at 4°C with an anti-Tubulin primary antibody (1∶1000 dilution; Cell Signaling). Primary antibodies used for detection included anti-tau (1∶2000 dilution; Dako), 12E8 tau (1∶7500 dilution; Peter Seubert, Elan Pharmaceuticals), pT231 tau (1∶1000 dilution; Abcam), pS396 tau (1∶5000 dilution; Abcam), and anti-DYRK1A (1∶500 dilution; Santa Cruz).
Cells undergoing any treatment, including β-carboline derivative dosing and siRNA treatment, were maintained in Dulbecco's Modified Eagle Medium (Invitrogen) supplemented with 10% fetal bovine serum (Invitrogen) and 2 mM L-Glutamine (Invitrogen). Viability assays were performed using a 96-well pate format. […]

MAO-A = test system: MAO-A; set-up: method as in PMID 18980841; settings: read-out: IC50 against MAO-A; cited from earlier work
recombinant human DYRK1A = target: T1, recombinant human DYRK1A (Homo sapiens, UniProt Q13627); assay: In vitro kinase assay: DYRK1A catalyzed direct phosphorylation of recombinant tau on serine 396 (western); assay type: biochemical; settings: for IC50: recombinant DYRK1A + 4R2N tau, 1 mM ATP
T1 construct: purchased Invitrogen

[2] = alamar Blue viability (toxicity) assay; assay type: cell-based; settings: human; H4 neuroglioma cells, drug renewed every 24 h for four days; read-out: IC50 for viability (concentration resulting in 50% cell viability)
Description: Cells undergoing any treatment, including β-carboline derivative dosing and siRNA treatment, were maintained in Dulbecco's Modified Eagle Medium (Invitrogen) supplemented with 10% fetal bovine serum (Invitrogen) and 2 mM L-Glutamine (Invitrogen). Viability assays were performed using a 96-well pate format. Metabolic activity was measured 12 hours after the addition of 10% alamar Blue (Invitrogen) directly to attached cells in full medium. This assay was based on the ability of metabolically active cells to convert alamar Blue reagent into a fluorescent signal proportional to innate metabolic activity. Once the ideal IC50 value for viability was identified, effects on multiple forms of tau were investigated after treating with the β-carbolines indicated in Table S1 using the larger 6 well plate format. For both the viability assay and cell culture tau assays, cell culture media was removed and cells were treated with freshly made drug in new media every 24 hours for four days. For cell culture tau assays, protein lysates were prepared after 96 hours of treatment. All compounds were solubilized in dimethylsulfoxide (DMSO), diluted in growth medium to their respective 0.01 µM, 0.1 µM, 1 µM and 10 µM final working dilutions and added directly to cultured cells. The final DMSO percentage in culture for all compounds and concentrations tested was 0.1%. […]

DYRK1A = test system: DYRK1A; set-up: method as in PMID 17850214; settings: synthetic peptide substrate; read-out: IC50 against DYRK1A; cited from earlier work
[3] = 30 min 30C, read-out: IC50 for inhibition of DYRK1A dependent tau phosphorylation at serine 396 (pS396)
[4] = read-out: IC50 for inhibition of DYRK1A dependent tau phosphorylation at serine 396

## O=C(NCCN1CCOCC1)c1ccc(Cl)cc1 [Moclobemide]
[1]; 500 µM (highest concentration), 96 h
  12E8 (pS262/pS356) tau % Control: 116 ± 10 % Control
[1]; 500 µM, 96 h
  Total Tau % Control: 103 ± 7 % Control
  pS396 tau % Control: 98 ± 9 % Control
  pT231 tau % Control: 118 ± 13 % Control
[1]; 500 µM
  12E8 % Control pTau/Total: 112 ± 8 % Control
  pS396 % Control pTau/Total: 95 ± 9 % Control
  pT231 % Control pTau/Total: 114 ± 12 % Control
[1]; doses up to 500 µM
  Effect on levels of total tau or specific phosphorylated forms of tau: did not reduce
MAO-A
  IC50: 3.9 µM

## COc1ccc2c3c([nH]c2c1)C(C)=NCC3 [Harmaline, harmaline]
Recombinant human DYRK1A; [3]
  IC50: 9 µM

## Cc1[nH]ccc2c1[nH]c1cc(=O)ccc12 [Harmol, harmol]
Recombinant human DYRK1A; [4]
  IC50: 0.09 µM

## COc1ccc2c(c1)[nH]c1c(C)nccc12 [Harmine]
[2]
  IC50 at 4 days: 12 µM
[1]; 8 µM, 96 h, H4-tau cells
  12E8 (pS262/pS356) tau % Control: 32 ± 7 % Control
  Total Tau % Control: 55 ± 9 % Control
  pS396 tau % Control: 49 ± 8 % Control
  pT231 tau % Control: 24 ± 6 % Control
[1]; 8 µM, 96 h
  12E8 % Control pTau/Total: 58 ± 6 % Control
  pS396 % Control pTau/Total: 89 ± 7 % Control
  pT231 % Control pTau/Total: 44 ± 5 % Control
[1]; 8 µM, 96 h, listed as harmine
  12E8 % Control pTau/Total: 58 % Control
  pT231 % Control pTau/Total: 44 % Control
[1]; H4-tau cells, 96 h
  Concentration at which tau levels were significantly reduced (p<0.05): […]
DYRK1A
  IC50: […]

## c1ccc2c(c1)[nH]c1cnccc12 [Norharmane, norharmane]
Recombinant human DYRK1A; [3]
  IC50: 45 µM

## CCn1c2cc(OC)ccc2c2ccnc(C)c21 [9-ethylharmine]
Recombinant human DYRK1A; pS396 in vitro phosphorylation, ethyl group on N-9 vs harmine
  Reduction of IC50 relative to harmine: ~2 fold
Recombinant human DYRK1A; [4]
  IC50: 0.4 µM
[1]; H4-tau cells, 96 h
  Concentration at which tau levels were significantly reduced (p<0.05): 1 µM

## Cc1nccc2c1[nH]c1ccccc12 [Harmane, harmane]
Recombinant human DYRK1A; [3]
  IC50: 15 µM

From article PMC3089604 (PLoS ONE, 2011)
